Earlier results in paper PMC5960647 (Experimental & Molecular Medicine, 2018).
Where no end group is shown, it is not given here.

What was measured:
CCKBR [1] = details: cited from earlier work
CCKBR [2] = details: dorsal root ganglion neurons, CCKBR in the same neuron; cited from earlier work

Row | Molecule | effect on opioid-induced analgesia (CCKBR [1]) | effect on pain threshold of administration per se (CCKBR [1]) | effect on electroacupuncture analgesia (CCKBR [1]; caudate nucleus, through CCKBR) | effect on opioid analgesia (CCKBR [1]; shown with L-365,260) | effect on MOR-mediated inhibition of voltage-gated calcium current (CCKBR [2])
1 | Cc1cccc(NC(=O)N[C@@H]2N=C(c3ccccc3)c3ccccc3N(C)C2=O)c1 [L-365,260] | potentiated opioid-induced analgesia | did not affect pain threshold |  |  | 
2 | cholecystokinin octapeptide (DYMGWMDF; ends and bridges not checked; UniProt P06307 96-103, looked up) [CCK-8] |  |  | antagonism to electroacupuncture analgesia | inhibited opioid analgesia through CCKBR | antagonized
